Test results from patent publication US20220306989A1, “CELL THERAPY METHODS” (Universität Basel, priority 2019, published 2022).
Numbered stars: 1 amine (or outer) side, 2 acyl side, 3 side chain; on linkers, the order of the positions; unused ones are H or OH. Bridge positions count the residues as written; N and C are the ends. Square brackets hold non-standard residues; d marks the D form. Peptide text beside a SMILES is read from it. I, II: the chains in the order shown. Actinocin(9to1) = Cc1c2oc3c(C)ccc(C(=O)[*:1])c3nc-2c(C(=O)[*:2])c(N)c1=O; NMeV = CN[C@H](C(=O)O)C(C)C; Sar = CNCC(=O)O

Key:
[1] = system: NV and CE NK cells; assay: IFN-γ measurement in human NK cells (bead-based immunoassay of supernatants); format: cell-based; conditions: IL-12/IL-18 stimulation 6 hours, 2-DG 10 mM pre-incubated 30 min
Protocol: (§1) Blood samples were obtained from healthy donors after written informed consent. Peripheral blood mononuclear cells were isolated by standard density-gradient centrifugation protocols (Lymphoprep; Fresenius Kabi). NK cells were negatively selected using EasySep negative NK cell isolation kit (Stemcell). Human NK cells were maintained in RPMI-1640 medium (Invitrogen) supplemented with 10% heat-inactivated human AB serum, 50 U/ml penicillin (Invitrogen) and 50 μg/ml streptomycin (Invitrogen) (R10AB). To generate CE NK cells, isolated NK cells were primed in R10AB containing IL-12 (10 ng/ml, R&D systems), IL-15 (1 ng/ml, PeproTech) and IL-18 (50 ng/ml, R&D systems) over-night. The next day cells were washed twice with PBS and maintained in R10AB containing IL-15 (1 ng/ml) until stimulation. Every 2-3 days 50% of the medium was replaced with fresh IL-IS (1 ng/ml). After 7 days cells were stimulated in R10AB containing IL-12 (10 ng/ml), IL-15 (1 ng/ml) and IL-18 (50 ng/ml) or with K562 leukemia targets (effector: target ratio, 5:1) for 6 hours. […]
NK cells were seeded in U-bottom 96 well plates (2×10^5 cells/well) using R10AB. […] Cell supernatants were harvested after stimulation and IFN-γ was measured using a human Th1 cytokine bead-based immunoassay (Legendplex, Biolegend) according to manufacturer's protocol.

[2] = system: NV and CE NK cells; assay: Quantitative real-time PCR of IFNG and TFRC mRNA in NK cells; format: cell-based, human
Protocol: as §1, with “ng/ml).” for “ng/ml). After 7 days cells were stimulated in R10AB containing IL-12 (10 ng/ml), IL-15 (1 ng/ml) and IL-18 (50 ng/ml) or with K562 leukemia targets (effector: target ratio, 5:1) for 6 hours.”
RNA was isolated from NK cells using Trizol (Thermo Fisher Scientific) and chloroform (Sigma-Aldrich) according to manufacturer's protocol, then purified with RNeasy RNA purification mini kit (QIAGEN, Germany). RNA concentration was determined using the NanoDrop 2000C (Thermo Fisher Scientific). […] Quantitative PCR for IFNG, TFRC and 18S mRNA was done in triplicate using commercially designed primers from Life Technologies (Hs00989291_m1, Hs00951083_m1, Hs03003631_g1). […]

[3] = system: NV and CE NK cells; assay: Flow cytometry of surface CD71 / CD69 on human NK cells; format: cell-based
Protocol: as §1
For surface staining NK cells were stained for 30 min at 4° C. with saturating concentrations of antibodies. […] Data were analyzed with Flowjo®_V10.5 (Tree Star, USA).

[4] = system: NV and CE NK cells; assay: Transferrin uptake assay (Tf-488); format: cell-based, human; conditions: IL-12/IL-18 + 2-DG treated NK cells
Protocol: as §1
NK cells were seeded in U-bottom 96-well plates (2×10^5 cells/well). […] Cells were resuspended in FACS buffer and analyzed by flow cytometry. […] Data were analyzed with Flowjo®_V10.5 (Tree Star, USA).

[5] = system: NV and CE NK cells; format: cell-based
Protocol: (§2) Blood samples were obtained from healthy donors after written informed consent. Peripheral blood mononuclear cells were isolated by standard density-gradient centrifugation protocols (Lymphoprep; Fresenius Kabi). NK cells were negatively selected using EasySep negative NK cell isolation kit (Stemcell). Human NK cells were maintained in RPMI-1640 medium (Invitrogen) supplemented with 10% heat-inactivated human AB serum, 50 U/ml penicillin (Invitrogen) and 50 μg/ml streptomycin (Invitrogen) (R10AB). To generate CE NK cells, isolated NK cells were primed in R10AB containing IL-12 (10 ng/ml, R&D systems), IL-15 (1 ng/ml, PeproTech) and IL-18 (50 ng/ml, R&D systems) over-night. The next day cells were washed twice with PBS and maintained in R10AB containing IL-15 (1 ng/ml) until stimulation. Every 2-3 days 50% of the medium was replaced with fresh IL-IS (1 ng/ml). After 7 days cells were stimulated in R10AB containing IL-12 (10 ng/ml), IL-15 (1 ng/ml) and IL-18 (50 ng/ml) or with K562 leukemia targets (effector: target ratio, 5:1) for 6 hours. When indicated, cells were pre-incubated with 2-deoxy-D-glucose (10 mM, Sigma-Aldrich), Actinomycin D (1 and 10 μM, Sigma-Aldrich), Cycloheximide (10 and 100 μg/ml, Sigma-Aldrich), 2,2′-Bipyridyl (1, 10, 50 and 100 μM, Sigma-Aldrich) or 6-aminonicotinamide (50 μM, Sigma-Aldrich) for 30 min and then stimulated in R10AB containing IL-12 (10 ng/ml), IL-1S (1 ng/ml) and IL-18 (50 ng/ml) for 6 hours.
For cell proliferation assays, NK cells were loaded prior to activation with the cell-proliferation dye CFSE (1 μM, Molecular probes, USA) and seeded in 96-well plates. Cells were washed twice and maintained in R10AB with IL-15 (1 ng/ml), when indicated in the presence of inhibitors. A fixable live-dead cell stain (Fixable Viability Dye, eBioscience or Zombie Aqua, Biolegend) was used to exclude dead cells prior to sample acquisition. CFSE dilution was analyzed 65 hours post-stimulation by flow cytometry. Samples were acquired using a BD AccuriC6 or a CytoFLEX flow cytometer (Beckman Coulter). Data were analyzed with Flowjo®_V 10.5 (Tree Star, USA).

[6] = system: NV and CE NK cells; assay: Immunoblot of total CD71, IRP1, IRP2 in human NK cells; format: cell-based; conditions: IL-12/IL-18 + ActD 1 and 10 μM or CHX 10 and 100 μg/ml
Protocol: as §2
Protein concentrations were determined by BCA protein assay kit (Thermo Fisher Scientific). Total cell lysates were separated using 4%-15% Mini Protean TGX Gel (Bio-Rad, Hercules Calif., USA), and transferred to nitrocellulose membranes using Trans-Blot Turbo Transfer (Bio-Rad, Hercules Calif., USA). […] Blots were stained with appropriate secondary antibodies and the odyssey imaging system (LICOR, Lincoln Nebr., USA) was used for visualization, and the ImageJ software (1.48v) for quantification.

Compound: O=CC[C@@H](O)[C@H](O)[C@H](O)CO [2-DG, 2-deoxy-d-glucose]
- IFN-γ secretion [1]: similarly reduced
- TFRC mRNA abundance ([2]; IL-12/IL-18 + 2-DG): similarly reduced
- IFNG mRNA abundance ([2]; IL-12/IL-18 stimulation 6 hours, 2-DG 10 mM pre-incubated 30 min): similarly reduced
- Cell surface expression of CD71 ([3]; IL-12/IL-18 + 2-DG, NV and CE NK cells): followed the same pattern
- transferrin uptake (Tf-488) [4]: reduced transferrin uptake

Compound: NC(=O)c1ccc(N)nc1 [6AN, 6-aminonicotinamide]
- expansion / proliferation of cytokine-stimulated NK cells (CFSE dilution) ([5]; IL-12/IL-18 + 6AN 50 μM, NV and CE NK cells): prevented expansion of cytokine-stimulated NK cells

Compound: Cc1c2oc3c(C)ccc(C(=O)N[C@@H]4C(=O)N[C@H](C(C)C)C(=O)N5CCC[C@H]5C(=O)N(C)CC(=O)N(C)[C@@H](C(C)C)C(=O)O[C@@H]4C)c3nc-2c(C(=O)N[C@@H]2C(=O)N[C@H](C(C)C)C(=O)N3CCC[C@H]3C(=O)N(C)CC(=O)N(C)[C@@H](C(C)C)C(=O)O[C@@H]2C)c(N)c1=O [Actinomcyin D, Actinomycin D] (I: T[dV]P[Sar][NMeV] / II: T[dV]P[Sar][NMeV]; ester I:1-I:C, II:1-II:C; linker I:N-II:N via Actinocin(9to1))
- stimulation-induced upregulation of CD71 (total CD71, Western blot) [6]: entirely prevented stimulation-induced upregulation of CD71
- stimulation-induced upregulation of CD71 (total CD71, Western blot) ([6]; listed as actinomycin): prevented stimulation-induced upregulation of CD71

Compound: c1ccc(-c2ccccn2)nc1 [BIP, 2,2′-bipyridyl]
- cell viability [5]: minimal effects on cell viability
- NK cell proliferation (CFSE dilution) ([5]; IL-12/IL-18 + BIP 1, 10 and 50 μM, NV and CE NK cells, 65 hours post-stimulation): inhibited NK cell proliferation in a dose-dependent manner
- NK cell activation as assessed by CD69 expression ([3]; IL-12/IL-18 + BIP 100 μM): no effect on NK cell activation

Compound: C[C@@H]1C[C@@H]([C@H](O)CC2CC(=O)NC(=O)C2)C(=O)[C@@H](C)C1 [cycloheximide]
- stimulation-induced upregulation of CD71 (total CD71, Western blot) [6]: entirely prevented stimulation-induced upregulation of CD71
